Measurements: US4721711A, “Pyridazine derivatives active on the central nervous system, and medicaments in which they are present” (Sanofi, priority 1983, dated 1988)

Columns and labels:
[1] = target: GABA post-synaptic receptor; assay: displacement of tritiated GABA from its post-synaptic receptor (synaptic membranes, Enna and Snyder); assay type: binding; conditions: in vitro, tritiated GABA 3.6 nM, read-out: Median effective concentration (EC50) for displacement of tritiated GABA
Description: The products according to the invention were studied for their activity on the central nervous system. Activity on the displacement of .UPSILON.-aminobutyric acid from its post-synaptic receptor. Method: The neurochemical activity of the derivatives of the present invention on the GABA-ergic system was evaluated by measuring the displacement of .UPSILON.-aminobutyric acid (GABA) from its post-synaptic receptor. The study was carried out by the method of ENNA and […] (Brain Res. 100, 81-97, 1975). The displacement experiment was carried out in vitro in the presence of a suspension of synaptic membranes and tritiated GABA at a final concentration of 3.6 nM.

[2] = system: rotational behaviour of mice; assay: rotational behaviour of mice after unilateral lesion of the nigro-striated passage by 6-(OH)-dopamine; assay type: in vivo, CD1 Charles River female mice; conditions: intraperitoneal, 1 hour after administration, over 2 minutes, **p 0.01
Description: 3. Effect on the rotational behaviour of mice after unilateral lesion of the nigro-striated passage by 6-(OH)-dopamine
The influence of the derivatives of the present invention on the central dopaminergic system was evaluated on the rotational behaviour of mice after unilateral lesion of the nigro-striated passage by 6-(OH)-dopamine. (P. PROTAIS and J. COSTENTIN, J. Pharmacol. 7(2), 251-255, 1976).
CD1 Charles River female mice, weighing 20 to 24 g, have previously undergone unilateral lesion of the striatum by the stereotaxic injection of 6-(OH)-dopamine at a dose of 8 μg per animal. One week after this operation, the product to be studied was administered intraperitoneally to grouos of 7 mice. The number of rotations was evaluated over 2 minutes, 1 hour after the administration of the product. The rotations on the same side as the lesion were counted as positive and those on the opposite side were counted as negative. The algebraic sum of the rotations for a group treated animals was compared with that for the group of control animals which had only received the vehicle (physiological serum).

[3] = system: spontaneous motility of mice; assay: spontaneous motility of mice (activity test); assay type: in vivo; conditions: oral, 45 minutes after administration, recorded 10 minutes
Description: 1. Activity on the motility of mice
The tranquillising-sedative activity of the derivatives of the present invention was evaluated by measuring the spontaneous motility of mice by means of the activity test (J. R. BOISSIER and P. SIMON, Arch. Int. Pharmacodyn. 1965, 158, 212-221).
The equipment consisted of activity cages of the Apelab type (length=26 cm; width=21.5 cm; height=10 cm), through which two rays of light pass, acting on a photoelectric cell.
The animals were placed individually in the cages 45 minutes after oral administration of the product: each crossing of a light beam was counted by an individual counter. The scores corresponding to the movements of the animals were recorded for 10 minutes. The batches consisted of 12 mice per dose.

[4] = system: reserpine-induced ptosis in mice; assay: antagonism of reserpine-induced ptosis in mice; assay type: in vivo; conditions: Mus musculus, ip; intraperitoneal, with reserpine 2 mg/kg i.v., 1 hour, probit; (26-32)* on the line below
Description: 2. Effect on the antagonism of reserpine-induced ptosis
The antidepressive activity of the compounds was evaluated in the test for the antagonism of reserpine-induced ptosis in mice.
This study was carried out on batches of 10 female mice weighing 20±1 g. The products were administered intraperitoneally at the same time as the reserpine (2 mg/kg, administered intravenously). The mice were observed individually 1 hour after the administrations. […] The median effective dose for antagonism (ED50) was evaluated by the probit method.

Row | SMILES | EC50 [1] [nM] | also measured
1 | Cc1cc(-c2cccc3ccccc23)n[n+](CCCC(=O)O)c1N [Example 24, 3-Amino-2-(3-carboxypropyl)-4-methyl-6-(naphth-1-yl)-2-pyridazinium chloride] | 2900 | 
2 | Nc1ccc(-c2ccccc2)n[n+]1CCCC(=O)O [Example 38] | 1340 | 
3 | Nc1ccc(-c2cccs2)n[n+]1CCCC(=O)O [Example 43] | 830 | 
4 | Cc1cc(-c2ccccc2)n[n+](CCCCC(=O)O)c1N [Example 40] |  | Rotational behaviour of mice, effect ([2]; 0,5 mg/kg): -50%; Rotational behaviour of mice, effect ([2]; 2 mg/kg): -62%; Motility of the mice, effect ([3]; 50 mg/kg, *p 0.05): -33%; Motility of the mice, effect ([3]; 100 mg/kg, **p 0.01): -48%; ED50 [4]: 29 mg/kg
5 | Cc1cc(-c2ccccc2Cl)n[n+](CCCC(=O)O)c1N [Example 29] | 3200 | 
6 | Cc1cc(-c2ccccc2)n[n+](CCCC(=O)O)c1N [Example 37] | 2800 | 
7 | Nc1ccc(-c2ccc(Cl)cc2Cl)n[n+]1CCCC(=O)O [Example 30] | 7000 | 
8 | Cc1cc(-c2cccc(Cl)c2)n[n+](CCCC(=O)O)c1N [Example 33] | 700 | 

The remaining molecules from weak to strong by EC50 [1], led by results:

Row | EC50 [1] [nM] | SMILES | also measured
9 | 10500 | Nc1ccc(C2CCCCC2)n[n+]1CCCC(=O)O [Example 41] | 
10 | 10000 | Cc1cc(-c2ccccc2)n[n+](CCC(=O)O)c1N [Example 39] | 
11 | 5000 | COc1ccc(-c2cc(C)c(N)[n+](CCCC(=O)O)n2)cc1 [Example 27] | 
12 | 3000 | Cc1cc(-c2ccc(O)cc2)n[n+](CCCC(=O)O)c1N [Example 47, 3-Amino-2-(3-carboxypropyl)-4-methyl-6-(4-hydroxyphenyl)-2-pyridazinium bromide] | 
13 | 2400 | Nc1ccc(-c2ccsc2)n[n+]1CCCC(=O)O [Example 42] | 
14 | 1250 | Nc1ccc(-c2ccc(Cl)cc2)n[n+]1CCCC(=O)O [Example 31] | 
15 | 710 | Cc1ccc(-c2cc(C)c(N)[n+](CCCC(=O)O)n2)cc1 [Example 34] | 
